Columns and labels:
[1] = system: Pseudomonas aeruginosa ATCC 9721; experiment: Agar Diffusion Test, Ps. aeruginosa; assay type: cell-based; conditions: mean ± S.E.M
Source text: (§1) The dried plant extract is ground to fine powder and sieved to obtain uniform powder size and used for pharmaceutical preparation. […] (1991) Antibiotics in Laboratory Medicine, 3rd ed. The pathogenic microbes inhibited by the crude water extract of M. coromandelianum are Staphylococcus aureus, and Salmonella typhimurium. […] [table]

[2] = system: Salmonella typhimurium ATCC 14028; experiment: Agar Diffusion Test, S. typhimurium; assay type: cell-based; conditions: mean ± S.E.M
Source text: as §1

[3] = system: Escherichia coli ATCC 25922; experiment: Agar Diffusion Test, E. coli; assay type: cell-based; conditions: mean ± S.E.M
Source text: as §1

[4] = system: Staphylococcus aureus ATCC 6538P; experiment: Agar Diffusion Test, S. aureus; assay type: cell-based; conditions: mean ± S.E.M
Source text: as §1

[5] = system: Klebsiella pneumoniae ATCC 10031; experiment: Agar Diffusion Test, K. pneumoniae; assay type: cell-based; conditions: mean ± S.E.M
Source text: as §1

[6] = system: streptozotocin-induced diabetic rats; experiment: Biochemical analysis of serum in diabetic rats at day 14 after daily feeding; assay type: in vivo, rat; conditions: day 14, Standard: injected 5 IU/Kg/day, mean ± S.E.M.

| Substance | Diameter of inhibition zone ([1]; 10 μg/ml) [mm] | Diameter of inhibition zone ([1]; 20 μg/ml) [mm] | Diameter of inhibition zone ([2]; 10 μg/ml) [mm] | Diameter of inhibition zone ([2]; 20 μg/ml) [mm] | Diameter of inhibition zone ([3]; 10 μg/ml) [mm] | Diameter of inhibition zone ([3]; 20 μg/ml) [mm] | Diameter of inhibition zone ([4]; 10 μg/ml) [mm] | Diameter of inhibition zone ([4]; 20 μg/ml) [mm] | Diameter of inhibition zone ([5]; 10 μg/ml) [mm] | Diameter of inhibition zone ([5]; 20 μg/ml) [mm] | Cholesterol [6] [mg %] | Glucose [6] [mg %] | Triglycerides [6] [mg %] |
| --- | --- | --- | --- | --- | --- | --- | --- | --- | --- | --- | --- | --- | --- |
| Gentamicin | 8.1 ± 0.00 | 12.8 ± 0.14 | 14.28 ± 0.07 | 15.88 ± 0.141 | 1.56 ± 0.07 | 3.78 ± 0.07 | 10.00 ± 0.00 | 12.77 ± 0.14 | 16.9 ± 0.00 | 26.57 ± 0.28 | – | – | – |
| Insulin | – | – | – | – | – | – | – | – | – | – | 225.96 ± 5.51 | 409.85 ± 12.52 | 388.10 ± 61.85 |
